The compounds below were run on NCI-H929 cells (assay: NCI-H929 cell proliferation assay (CellTiter-Glo)). Conditions: 72 h compound treatment.
Format: cell-based
Method: NCI-H929 Cell Proliferation Assay
Cell proliferation was measured using the CellTiter-Glo® Luminescent Cell Viability Assay. The assay involved the addition of a single reagent (CellTiter-Glo® Reagent) directly to cells cultured in serum-supplemented medium. NCI-H929 (ATCC CRL-9068) cells were cultured according to ATCC recommendations and were seeded at 3,000 cells per well.
Each compound evaluated was prepared as a DMSO stock solution (10 mM). Compounds were tested in duplicate on each plate, with a 10-point serial dilution curve (1:3 dilution). Compound treatment ([…]) was added from the compound dilution plate to the cell plate. The highest compound concentration was 10 μM (final), with a 0.1% final DMSO concentration. Plates were then incubated at 37° C., 5% CO2. After 72 h of compound treatment, cell plates were equilibrated at rt for approximately 30 mins. An equi-volume amount of CellTiter-Glo® Reagent (40 μL) was added to each well. Plates were mixed for 2 mins on an orbital shaker to induce cell lysis and then incubated at rt for 10 mins to stabilize the luminescent signal. Luminescence was recorded using an Envision plate reader according to CellTiter-Glo protocol. IC50 of each compound was calculated using GraphPad Prism by nonlinear regression analysis.

SMILES | IC50 [nM]
Cc1nn(C23CC(C2)C3)c2c1-c1c(Cl)ccc3c(c(C(=O)O)n(C)c13)CCCOc1cc(cc3c1NCCC3)SCc1cc(nn1C)CSC2 (atropisomer, axis not shown; (Sa)) [Example 9B, (Sa)-(−)-(Z)-2^1-(Bicyclo[1.1.1]pentan-1-yl)-1^6-chloro-1^1,2^3,6^1-trimethyl-9^1,9^2,9^3,9^4-tetrahydro-1^1H,2^1H,6^1H-10-oxa-4,8-dithia-9(6,8)-quinolina-1(7,3)-indola-2(4,5),6(3,5)-dipyrazolacyclotridecaphane-1^2-carboxylic acid] | ≤ 100
Cn1nc2cc1CSc1cc3c(c(c1)OCCCc1c(C(=O)O)n(C)c4c(c(F)ccc14)-c1c(nn4c1CCCC4)CSC2)NCCC3 (atropisomer, axis not shown; (Sa)) [Example 8B, (Sa)-(−)-(Z)-1^6-Fluoro-1^1,6^1-dimethyl-2^4,2^5,2^6,2^7,9^1,9^2,9^3,9^4-octahydro-1^1H,6^1H-10-oxa-4,8-dithia-9(6, 8)-quinolina-2(3,2)-pyrazolo[1,5-a]pyridina-1(7,3)-indola-6(3,5)-pyrazolacyclotridecaphane-1^2-carboxylic acid] | 100 to 1000
Cn1nc2cc1CSc1cc3c(c(c1)OCCCc1c(C(=O)O)n(C)c4c(c(Cl)ccc14)-c1c(nn4c1CCCC4)CNC2)NCCC3 (atropisomer, axis not shown; (Ra)) [Example 12A, (Ra)-(+)-(Z)-1^6-Chloro-1^1,6^1-dimethyl-2^4,2^5,2^6,2^7,9^1,9^2,9^3,9^4-octahydro-1^1H,6^1H-10-oxa-8-thia-4-aza-9(6,8)-quinolina-2(3,2)-pyrazolo[1,5-a]pyridina-1(7,3)-indola-6(3,5)-pyrazolacyclotridecaphane-1^2-carboxylic acid] | ≥ 1000
Cn1nc2cc1CSc1cc3c(c(c1)OCCCc1c(C(=O)O)n(C)c4c(c(F)ccc14)-c1c(nn4c1CCCC4)CSC2)NCCC3 (atropisomer, axis not shown; (Ra)) [Example 8A, (Ra)-(+)-(Z)-1^6-Fluoro-1^1,6^1-dimethyl-2^4,2^5,2^6,2^7,9^1,9^2,9^3,9^4-octahydro-1^1H,6 ^1H-10-oxa-4,8-dithia-9(6, 8)-quinolina-2(3,2)-pyrazolo[1,5-a]pyridina-1(7,3)-indola-6(3,5)-pyrazolacyclotridecaphane-1^2-carboxylic acid] | ≥ 1000
CN1Cc2cc(n(C)n2)CCc2cc3c(c(c2)OCCCc2c(C(=O)O)n(C)c4c(c(Cl)ccc24)-c2c(nn4c2CCC4)C1)NCCC3 (atropisomer, axis not shown; (Sa)) [Example 5B, (Sa)-(−)-(Z)-1^6-Chloro-1^1,6^1,4-trimethyl-2^5,2^6,9^1,9^2,9^3,9^4-hexahydro-1^1H,2^4H,6^1H-10-oxa-4-aza-9(6,8)-quinolina-1(7,3)-indola-2(3,2)-pyrrolo[1,2-b]pyrazola-6(3,5)-pyrazolacyclotridecaphane-1^2-carboxylic acid] | ≥ 1000
Cc1nn(C23CC(C2)C3)c2c1-c1c(Cl)ccc3c(c(C(=O)O)n(C)c13)CCCOc1cc(cc3c1NCCC3)SCc1cc(nn1C)CSC2 (atropisomer, axis not shown; (Ra)) [Example 9A, (Ra)-(+)-(Z)-2^1-(Bicyclo [1.1.1]pentan-1-yl)-1^6-chloro-1^1,2^3,6^1-trimethyl-9^1,9^2,9^3,9^4-tetrahydro-1^1H,2^1H,6^1H-10-oxa-4,8-dithia-9(6,8)-quinolina-1(7,3)-indola-2(4,5),6(3,5)-dipyrazolacyclotridecaphane-1^2-carboxylic acid] | ≥ 1000

Same assay, conditions: Homo sapiens, NCI-H929, 72 h, 72 h compound treatment

SMILES | IC50 [nM]
Cn1nc2cc1CSc1cc3c(c(c1)OCCCc1c(C(=O)O)n(C)c4c(c(Cl)ccc14)-c1c(nn4c1CCCC4)CSC2)NCCC3 (single isomer, unassigned) [Example 2A, (Ra)-(+)-(Z)-1^6-chloro-1^1,6^1-dimethyl-2^4,2^5,2^6,2^7,9^1,9^2,9^3,9^4-octahydro-1^1H,6^1H-10-oxa-4,8-dithia-9(6,8)-quinolina-2(3 ,2)-pyrazolo[1,5-a]pyridina-1(7 ,3)-indola-6(3,5)-pyrazolacyclotridecaphane-1^2-carboxylic acid] | ≤ 100
CO[C@H]1/C=C/C[C@H](C)[C@@H](C)S(=O)(=O)NC(=O)c2ccc3c(c2)N(C[C@@H]2CC[C@H]21)C[C@@]1(CCCc2cc(Cl)ccc21)CO3 [AMG176, reference compound] | 100 to 1000
Cn1nc2cc1CSc1cc3c(c(c1)OCCCc1c(C(=O)O)n(C)c4c(c(Cl)ccc14)-c1c(nn4c1CCC4)CSC2)NCCC3 (single isomer, unassigned) [Example 1A, (Ra)-(+)-(Z)-1^6-Chloro-1^1,6^1-dimethyl-2^5,2^6,9^1,9^2,9^3,9^4-hexahydro-1^1H,2^4H,6^1H-10-oxa-4,8-dithia-9(6,8)-quinolina-1(7,3)-indola-2(3,2)-pyrrolo[1,2-b]pyrazola-6(3,5)-pyrazolacyclotridecaphane-1^2-carboxylic acid] | ≤ 100
Cc1c2c(nn1C)CSCc1cc(n(C)n1)CSc1cc(c3ccccc3c1)OCCCc1c(C(=O)O)n(C)c3c-2c(Cl)ccc13 [AZD5991, reference compound] | ≤ 100

The compounds below were run against Mcl-1 (Homo sapiens, UniProt Q07820) (assay: Mcl-1 Homogeneous Time Resolved Fluorescence (HTRF) binding assay). Conditions: not given.
Sequence of Mcl-1 (Q07820 whole entry): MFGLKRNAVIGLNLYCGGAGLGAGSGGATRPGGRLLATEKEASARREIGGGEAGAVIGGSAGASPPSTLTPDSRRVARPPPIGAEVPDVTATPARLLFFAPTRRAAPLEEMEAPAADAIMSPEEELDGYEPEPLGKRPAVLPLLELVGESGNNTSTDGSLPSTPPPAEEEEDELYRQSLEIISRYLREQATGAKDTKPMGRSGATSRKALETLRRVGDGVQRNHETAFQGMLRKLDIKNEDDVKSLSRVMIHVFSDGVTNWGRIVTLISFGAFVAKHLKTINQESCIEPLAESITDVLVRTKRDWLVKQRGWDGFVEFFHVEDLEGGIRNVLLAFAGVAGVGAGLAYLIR

SMILES | IC50 [nM]
Cn1nc2cc1CSc1cc3c(c(c1)OCCCc1c(C(=O)O)n(C)c4c(c(Cl)ccc14)-c1c(nn4c1CCCC4)CSC2)NCCC3 (single isomer, unassigned) [Example 2A, (Ra)-(+)-(Z)-1^6-chloro-1^1,6^1-dimethyl-2^4,2^5,2^6,2^7,9^1,9^2,9^3,9^4-octahydro-1^1H,6^1H-10-oxa-4,8-dithia-9(6,8)-quinolina-2(3 ,2)-pyrazolo[1,5-a]pyridina-1(7 ,3)-indola-6(3,5)-pyrazolacyclotridecaphane-1^2-carboxylic acid] | < 10
Cn1nc2cc1CSc1cc3c(c(c1)OCCCc1c(C(=O)O)n(C)c4c(c(Cl)ccc14)-c1c(nn4c1CCC4)CSC2)NCCC3 (single isomer, unassigned) [Example 1A, (Ra)-(+)-(Z)-1^6-Chloro-1^1,6^1-dimethyl-2^5,2^6,9^1,9^2,9^3,9^4-hexahydro-1^1H,2^4H,6^1H-10-oxa-4,8-dithia-9(6,8)-quinolina-1(7,3)-indola-2(3,2)-pyrrolo[1,2-b]pyrazola-6(3,5)-pyrazolacyclotridecaphane-1^2-carboxylic acid] | < 10

From US20230192720A1, “MACROCYCLIC COMPOUNDS” (ZENO MANAGEMENT, INC., priority 2019, published 2023)
